Results taken from US12031171B2, “Fatty acid esters against infections in fermentations” (PURAC BIOCHEM BV, priority 2016, dated 2024).

How the values were obtained:
[1] = tested on: Clostridium perfringens ATCC 13124; type: cell-based; conditions: brain heart infusion broth, pH 6.0, 30° C., 0% oxygen
[2] = tested on: Clostridium pasteurianum JEG2; assay: Mixed culture fermentation of Escherichia coli TG128 with Clostridium pasteurianum JEG2 (7 litre fermenters); type: cell-based; conditions: Fermenter 3, mixed culture
[3] = 0.05% (w/v) added, 25-35 hours, pH 6.5, 37° C.

CCCCCCCCCC(=O)OC(C)C(=O)O (stereo not shown) [Decanoyl-lactylate]
MIC value [1]: 0.04 % (w/v)

CCCCCCCCCCCC(=O)OC(C)C(=O)O (stereo not shown) [Dodecanoyl-lactylate]
MIC value [1]: 0.002 % (w/v)

CCCCCCCCCCCCCCCC(=O)OC(C)C(=O)O (stereo not shown) [Hexadecanoyl-lactylate]
MIC value [1]: 0.002 % (w/v)

CCCCCCCC(=O)OC(C)C(=O)[O-].[Na+] (stereo not shown) [Octanoyl-lactylate]
MIC value [1]: 0.05 % (w/v)

CCCCCCCCC=CCCCCCCCC(=O)OC(C)C(=O)O (stereo not shown) [Olacta, Octadecenoyl-lactylate]
MIC value [1]: 0.02 % (w/v)

CCCCCCCCCCCCCCOS(=O)(=O)[O-].[Na+] [Sodium tetradecyl sulfate, reference compound]
MIC value [1]: 0.001 % (w/v)

CCCCCCCCCCCCCC(=O)O [Tetradecanoic acid, reference compound]
MIC value [1]: >0.01 % (w/v)

CCCCCCCCCCCCCC(=O)OC(C)C(=O)O (stereo not shown) [Tetradecanoyl-lactylate, tetradecanoyl-lactylate]
MIC value [1]: 0.001 % (w/v) | results of Fermenter 3 compared with those at 0.05% (w/v) ([2]; 0.025% (w/v) added): Exactly the same results | endospore bearing cells, microscopic examination of the culture broth ([2]; 0.05% (w/v) added): no endospore bearing cells | foam and putrid smell produced by the fermenter ([2]; 0.05% (w/v) added): no foam or putrid smell | impurity profile of fermentation broth compared with the Escherichia coli TG128 standard fermentation (Fermenter 1) ([2]; 0.05% (w/v) added): no difference in impurity profile | performance of Fermenter 3 compared with Fermenter 1 (pure culture of Escherichia coli TG128) ([2]; 0.05% (w/v) added): in every respect similar | 2-hydroxy butyric acid [2, 3]: <0.1 g/L | % enantiomeric excess: (R − S)/(R + S) [2, 3]: 99.3% | Acetic acid [2, 3]: 0.3 g/L | Benzoic acid [2, 3]: <0.3 g/L | Butyric acid [2, 3]: 0.1 g/L | Citric acid [2, 3]: <0.5 g/L | Ethanol [2, 3]: 0.08 g/L | Formic acid [2, 3]: <0.2 g/L | Fumaric acid [2, 3]: <0.2 g/L | Glycolic acid [2, 3]: <0.5 g/L | Maleic acid [2, 3]: <0.2 g/L | Malic acid [2, 3]: <0.5 g/L | Oxalic acid [2, 3]: <0.2 g/L | Propionic acid [2, 3]: <0.1 g/L | Pyruvic acid [2, 3]: <0.1 g/L | R-lactate [2, 3]: 81.8 g/L | S-lactate [2, 3]: 0.3 g/L | Sorbic acid [2, 3]: <0.1 g/L | Succinic acid [2, 3]: <0.1 g/L | glucose [2, 3]: 2.3 g/L | % enantiomeric excess: (R − S)/(R + S) ([2]; 0.05% (w/v) added, 25-35 hours, pH 6.5, 37° C., listed as tetradacanoyl-lactylate): ~100%
